Usually IC50 stands for the concentration that inhibits the measured activity by half.

Bounds are passed on as bounds.

The target in one data set is T1, CYP2D6 (Homo sapiens, UniProt P10635).
T1 construct: 0.2 mg/ml pooled human liver microsomes; from tissue; host or cells: pooled human liver microsomes
Briefly: CYP inhibition assay, CYP2D6. The settings on record: human liver microsomes, dextromethorphan O-demethylase; read-out: CYP IC50 2D6. In kind it is in vitro ADME. The method, then:
(§1) Inhibition of cytochromes P450 (CYPs) 2C9, 2D6 and 3A4 was assessed using human liver microsomes and CYP-selective substrate metabolism reactions. 50 μl incubations were made up containing (finally) 0.2 mg/ml pooled human liver microsomes, 5 μM substrate (diclofenac for CYP2C9 [4′ hydroxylase], dextromethorphan for CYP2D6 [O-demethylase] or midazolam for CYP3A4 [1′ hydroxylase]), 0.25 μL DMSO containing test inhibitor and NADPH regenerating system. Test inhibitor concentrations of 50, 16.7, 5.6, 1.9, 0.6 and 0.2 μM were assessed in singlicate. Incubations were pre-warmed to 37° C. for 10 minutes before initiation by addition of NADPH regenerating system. Incubations were quenched after 5 minutes (20 minutes for dextromethorphan) by addition of 50 μl cold acetonitrile containing 20 ng/ml 4-OH-diclofenac-13C6, 20 ng/mL dextrorphan-D3 and 20 ng/mL 1-OH-midazolam-D4. Quenched incubates were stored at −20° C. for at least 1 hour before centrifugation (20,000×g, 20 minutes). Supernatants were removed and diluted 1:1 with water prior to analysis using a RapidFire sample injector system and API4000 mass spectrometer. Peak areas for substrate, metabolite and stable-labelled metabolite standard were determined using MS/MS. The peak area ratios between the metabolite generated by the enzymatic reaction and the internal standard were used in subsequent calculations. The percentage of (DMSO) control activity was calculated for each incubate and IC50 values estimated by non-linear regression. Sulfaphenazole, quinidine or ketoconazole were tested in each CYP2C9, CYP2D6 or CYP3A4 inhibition experiment, respectively, to ensure assay sensitivity and reproducibility. (Validated assays for human cytochrome P450 activities, R. L. Walsky and R. S. Obach, Drug Metabolism and Disposition 32: 647-660, 2004. and S. Fowler and H. Zhang, The AAPS Journal, Vol. 10, No. 2, 410-424, 2008.)
On the technique in general: Liver microsomes are vesicles of endoplasmic reticulum, rich in cytochrome P450 enzymes.

In data set [1] the target is T2, cathepsin D (from human liver) (Homo sapiens, UniProt P07339).
T2 construct: cathepsin D (from human liver, Calbiochem) diluted in assay buffer; purchased Calbiochem; host or cells: purified from human liver
T2 sequence (P07339 65-162 limits assumed): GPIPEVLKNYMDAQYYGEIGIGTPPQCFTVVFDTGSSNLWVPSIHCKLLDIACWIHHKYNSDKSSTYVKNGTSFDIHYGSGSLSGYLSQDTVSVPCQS
T2 sequence (P07339 169-412 limits assumed): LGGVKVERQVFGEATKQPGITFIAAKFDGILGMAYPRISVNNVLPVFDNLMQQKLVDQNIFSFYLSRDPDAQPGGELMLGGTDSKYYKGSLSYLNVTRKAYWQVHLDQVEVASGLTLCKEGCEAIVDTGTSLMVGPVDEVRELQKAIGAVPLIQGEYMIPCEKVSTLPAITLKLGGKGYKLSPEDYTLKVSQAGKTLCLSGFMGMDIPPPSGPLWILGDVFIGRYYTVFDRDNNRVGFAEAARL
Kind of data set: Cathepsin D fluorescent substrate kinetic assay. In kind it is biochemical. As to conditions: pH 5.5, substrate […]-MR121. The text has this:
(§2) Cathepsin D and Cathepsin E Fluorescent Substrate Kinetic Assays
(§3) The MR121 fluorescence assays described below are based on the fact that MR121 forms a non-fluorescent ground state complex with tryptophan. In solution this formation occurs at millimolar concentrations of tryptophan. The mechanism can be used to design a generic biochemical assay for proteases. A substrate peptide is labeled at the N-terminus with tryptophan and at the C-terminus with the fluorophore MR121 (for cathepsin D the 10 amino acid peptide […]-MR121 was used; for cathepsin E, MR121-[…] was used). In absence of protease activity, the substrates remain intact and the MR121 fluorescence is reduced by the high local Trp-concentration. If the substrates are cleaved by the enzymes the MR121 fluorescence is recovered.
(§4) The fluorescent substrate cathepsin D and cathepsin E kinetic assays were performed at room temperature in 384-well microtiter plates (black with clear flat bottom, non binding surface plates from Corning) in a final volume of 51 μl. The test compounds were serially diluted in DMSO (15 concentrations, ⅓ dilution steps) and 1 μl of diluted compounds were mixed for 10 min with 40 μl of cathepsin D (from human liver, Calbiochem) diluted in assay buffer (100 mM sodium acetate, 0.05% BSA, pH 5.5; final concentration: 200 nM) or with 40 μl of recombinant human cathepsin E (R&D Systems) diluted in assay buffer (100 mM sodium acetate, 0.05% BSA, pH 4.5; final concentration: 0.01 nM). After addition of 10 μl of the cathepsin D substrate […]-MR121 diluted in cathepsin D assay buffer (final concentration: 300 nM) or […] cathepsin E substrate MR121-[…] diluted in cathepsin E assay buffer (final concentration: 300 nM), the plates were strongly shaken for 2 minutes. The enzymatic reaction was followed in a plate: vision reader (Perkin Elmer) (excitation wavelength: 630 nm; emission: 695 nm) for at least 30 minutes in a kinetic measurement detecting an increase of MR121 fluorescence during the reaction time. The slope in the linear range of the kinetic was calculated and the IC50 of the test compounds were determined using a four parameter equation for curve fitting.

Data set [2] addresses T3, recombinant human cathepsin E (Homo sapiens, UniProt P14091).
T3 construct: purchased R&D Systems
T3 sequence (P14091 54-396): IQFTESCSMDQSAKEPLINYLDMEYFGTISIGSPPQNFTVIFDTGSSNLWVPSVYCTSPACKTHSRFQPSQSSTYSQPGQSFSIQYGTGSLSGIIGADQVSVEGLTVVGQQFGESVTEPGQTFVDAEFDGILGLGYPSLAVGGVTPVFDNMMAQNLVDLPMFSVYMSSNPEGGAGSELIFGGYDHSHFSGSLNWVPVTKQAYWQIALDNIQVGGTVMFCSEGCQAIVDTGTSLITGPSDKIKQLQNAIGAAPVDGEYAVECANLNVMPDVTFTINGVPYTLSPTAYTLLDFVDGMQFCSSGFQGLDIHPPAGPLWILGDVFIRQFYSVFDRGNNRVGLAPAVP
Kind of data set: Cathepsin E fluorescent substrate kinetic assay. Format: biochemical. The settings on record: pH 4.5, substrate MR121-[…].
Excerpt: as §2, §3, §4

Another data set concerns the target T4, CYP2C9 (Homo sapiens, UniProt P11712).
T4 construct: 0.2 mg/ml pooled human liver microsomes; from tissue; host or cells: pooled human liver microsomes
Briefly: CYP inhibition assay, CYP2C9. Format: in vitro ADME. As to conditions: human liver microsomes, diclofenac 4' hydroxylase; read-out: CYP IC50 2C9. The method, then: as §1

For the next data set, the target named is T5, CYP3A4 (Homo sapiens, UniProt P08684).
T5 construct: 0.2 mg/ml pooled human liver microsomes; from tissue; host or cells: pooled human liver microsomes
T5 sequence (P08684 whole entry): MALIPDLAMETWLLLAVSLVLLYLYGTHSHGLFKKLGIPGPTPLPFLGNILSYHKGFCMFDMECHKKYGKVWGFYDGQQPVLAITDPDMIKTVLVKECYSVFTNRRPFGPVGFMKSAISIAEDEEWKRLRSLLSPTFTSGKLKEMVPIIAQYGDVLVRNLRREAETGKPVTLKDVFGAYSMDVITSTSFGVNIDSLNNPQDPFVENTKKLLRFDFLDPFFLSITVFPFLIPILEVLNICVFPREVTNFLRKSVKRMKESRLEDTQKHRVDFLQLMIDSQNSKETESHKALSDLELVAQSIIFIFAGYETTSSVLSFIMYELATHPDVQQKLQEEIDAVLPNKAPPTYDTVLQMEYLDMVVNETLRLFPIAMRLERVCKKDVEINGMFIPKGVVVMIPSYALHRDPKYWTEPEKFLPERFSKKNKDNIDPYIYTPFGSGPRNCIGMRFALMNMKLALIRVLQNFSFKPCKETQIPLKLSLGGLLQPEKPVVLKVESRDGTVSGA
Briefly: CYP inhibition assay, CYP3A4. Format: in vitro ADME. As to conditions: human liver microsomes, midazolam 1' hydroxylase; read-out: CYP IC50 3A4. The protocol:
as §1

Another data set addresses T6, hERG channel (Homo sapiens, UniProt Q12809).
T6 construct: expressed in transfected cells; host or cells: CHO cells
Briefly: PatchXpress hERG inhibition assay. Format: cell-based. The settings on record: @ 1 μM; CHO cells transfected with hERG, automated patch clamp. The method, then: PatchXpress hERG Inhibition Assay
The detailed method to quantify hERG channel inhibition by the automated patch clamp system PatchXpress® 7000A (Molecular Devices, Sunnyvale, Calif.) has been described by Guo et al. (J of Pharmacol & Tox Methods, (2005) 52(1):123-35). In brief, Chinese hamster ovary (CHO) cells transfected with the human ether-a-go-go-related gene (hERG) was cultured in Ex-cell 302 media supplemented with 10% fetal bovine serum, 2 mM glutamine and 0.25 mg/ml geneticin and maintained in a CO2 incubator at 37° C. For patch clamp electrophysiology, the external buffer contained (in mM): 150 NaCl, 10 Hepes, 4 KCl, 1.2 CaCl2, 1 MgCl2, pH 7.4 adjusted with […] and the internal recording solution contained (in mM): 140 KCl, 6 EGTA, 5 Hepes, MgCl2, 5 ATP-Na2, pH 7.2 adjusted with KOH. Once the cell was loaded in the recording chamber and formed a giga ohm seal with the planar glass electrodes (Sealchip™), a whole-cell configuration was achieved by rupturing the cell membrane. The membrane potential was then clamped at −80 mV and the hERG channel activated by a 1-second depolarizing pulse delivered at 0.1 Hz, the hERG current was measured during the 500 ms-repolarizing pulse to −40 mV. After an acceptable hERG current recording was obtained, the cell was first exposed to 0.3% DMSO as the vehicle control, followed by the test article in three ascending, full-log interval concentrations and finally E-4031 at 1 μM (as the positive control) to block the hERG current completely. […] The inhibition of hERG current at each concentration was normalized to that recorded in the vehicle control, and fitted with Hill equation to calculate IC20 and/or IC50.

A further data set in a line: in vivo effect. The settings on record: % of control @ 30 mg/kg p.o.
A short description of data set [3]: Detection of glutathione conjugates. More on the design: key: NF: in vitro no significant adduct formation relative to control. In kind it is in vitro ADME, human. The settings on record: in vitro, relative to control. The source says:
Detection of Glutathione Conjugates
The assay conditions for the detection of glutathione conjugates follow the procedure described by C. M. Dieckhaus et al.

A further data set addresses T7, BACE1 (Homo sapiens, UniProt P56817).
T7 construct: Human HEK293 cells which are stably transfected with a vector expressing a cDNA of the human APP wt gene (APP695); endogenous in cells; host or cells: HEK293 stably transfected with human APP695 wt
Kind of data set: Cellular Aβ-lowering assay (Aβ40 ELISA). Format: cell-based. The settings on record: HEK293 cells stably expressing human APP wt (APP695); Aβ40 in supernatant after 18-20 hrs; read-out: BACE1 cell act. Aβ40 IC50. The method, then: Cellular Aβ-Lowering Assay:
Human HEK293 cells which are stably transfected with a vector expressing a cDNA of the human APP wt gene (APP695) were used to assess the potency of the compounds in a cellular assay. The cells were seeded in 96-well microtiter plates in cell culture medium (Iscove, plus 10% (v/v) fetal bovine serum, glutamine, penicillin/streptomycin) to about 80% confluence and the compounds were added at a 10× concentration in 1/10 volume of medium without FCS containing 8% DMSO (final concentration of DMSO was kept at 0.8% v/v). After 18-20 hrs incubation at 37° C. and 5% CO2 in a humidified incubator the culture supernatant was harvested for the determination of Aβ40 concentrations. 96 well ELISA plates (e.g., Nunc MaxiSorb) were coated with monoclonal antibody which specifically recognize the C-terminal end of Aβ40 (Brockhaus et al., NeuroReport 9, 1481-1486; 1998). After blocking of non-specific binding sites with e.g. 1% BSA and washing, the culture supernatants were added in suitable dilutions together with a horseradish peroxidase-coupled Aβ detection antibody (e.g., antibody 4G8, Senetek, Maryland Heights, Mo.) and incubated for 5 to 7 hrs. Subsequently the wells of the microtiter plate were washed extensively with Tris-buffered saline containing 0.05% Tween 20 and the assay was developed with tetramethylbenzidine/H2O2 in citric acid buffer. After stopping the reaction with one volume 1 N H2SO4 the reaction was measured in an ELISA reader at 450 nm wavelength. The concentrations of Aβ in the culture supernatants were calculated from a standard curve obtained with known amounts of pure Aβ peptide.

T4 sequence (P11712 whole entry): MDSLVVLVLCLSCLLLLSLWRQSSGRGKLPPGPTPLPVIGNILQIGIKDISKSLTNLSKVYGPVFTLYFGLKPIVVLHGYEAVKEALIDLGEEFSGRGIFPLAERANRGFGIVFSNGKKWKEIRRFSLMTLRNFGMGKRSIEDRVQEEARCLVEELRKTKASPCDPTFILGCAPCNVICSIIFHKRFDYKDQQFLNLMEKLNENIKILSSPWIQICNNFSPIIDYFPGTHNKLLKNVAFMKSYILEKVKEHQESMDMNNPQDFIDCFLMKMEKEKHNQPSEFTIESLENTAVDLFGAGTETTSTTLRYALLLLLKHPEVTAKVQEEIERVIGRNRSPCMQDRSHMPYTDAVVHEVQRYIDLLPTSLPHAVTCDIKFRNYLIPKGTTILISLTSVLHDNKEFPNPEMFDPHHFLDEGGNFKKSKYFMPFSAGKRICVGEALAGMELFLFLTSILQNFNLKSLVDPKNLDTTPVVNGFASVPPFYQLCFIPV
T1 sequence (P10635 whole entry): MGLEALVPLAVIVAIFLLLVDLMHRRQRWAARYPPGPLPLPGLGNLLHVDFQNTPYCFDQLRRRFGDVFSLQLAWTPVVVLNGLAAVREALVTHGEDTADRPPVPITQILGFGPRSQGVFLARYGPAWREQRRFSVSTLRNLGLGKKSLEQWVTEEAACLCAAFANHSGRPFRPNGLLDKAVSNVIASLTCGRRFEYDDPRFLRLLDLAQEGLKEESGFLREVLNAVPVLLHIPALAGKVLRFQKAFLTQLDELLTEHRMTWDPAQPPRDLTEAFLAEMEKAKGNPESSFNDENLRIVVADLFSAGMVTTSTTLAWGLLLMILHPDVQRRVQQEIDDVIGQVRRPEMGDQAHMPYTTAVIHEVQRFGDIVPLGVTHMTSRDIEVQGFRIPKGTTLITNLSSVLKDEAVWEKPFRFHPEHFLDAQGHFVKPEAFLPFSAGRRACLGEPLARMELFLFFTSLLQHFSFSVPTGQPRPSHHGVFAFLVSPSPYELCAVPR
T7 sequence (P56817 46-501): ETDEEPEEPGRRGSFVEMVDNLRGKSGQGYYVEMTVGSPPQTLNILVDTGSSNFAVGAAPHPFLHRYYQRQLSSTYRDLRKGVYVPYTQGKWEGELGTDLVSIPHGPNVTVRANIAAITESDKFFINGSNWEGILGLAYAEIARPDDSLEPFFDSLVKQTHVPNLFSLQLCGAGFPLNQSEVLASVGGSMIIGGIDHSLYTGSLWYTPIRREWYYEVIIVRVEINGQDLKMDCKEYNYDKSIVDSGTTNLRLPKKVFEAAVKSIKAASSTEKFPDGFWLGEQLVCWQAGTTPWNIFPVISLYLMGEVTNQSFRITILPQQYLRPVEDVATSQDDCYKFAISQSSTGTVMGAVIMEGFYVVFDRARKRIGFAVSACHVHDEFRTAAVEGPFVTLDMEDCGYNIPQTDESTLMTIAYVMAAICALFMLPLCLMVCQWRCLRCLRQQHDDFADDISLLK
T6 sequence (Q12809 whole entry): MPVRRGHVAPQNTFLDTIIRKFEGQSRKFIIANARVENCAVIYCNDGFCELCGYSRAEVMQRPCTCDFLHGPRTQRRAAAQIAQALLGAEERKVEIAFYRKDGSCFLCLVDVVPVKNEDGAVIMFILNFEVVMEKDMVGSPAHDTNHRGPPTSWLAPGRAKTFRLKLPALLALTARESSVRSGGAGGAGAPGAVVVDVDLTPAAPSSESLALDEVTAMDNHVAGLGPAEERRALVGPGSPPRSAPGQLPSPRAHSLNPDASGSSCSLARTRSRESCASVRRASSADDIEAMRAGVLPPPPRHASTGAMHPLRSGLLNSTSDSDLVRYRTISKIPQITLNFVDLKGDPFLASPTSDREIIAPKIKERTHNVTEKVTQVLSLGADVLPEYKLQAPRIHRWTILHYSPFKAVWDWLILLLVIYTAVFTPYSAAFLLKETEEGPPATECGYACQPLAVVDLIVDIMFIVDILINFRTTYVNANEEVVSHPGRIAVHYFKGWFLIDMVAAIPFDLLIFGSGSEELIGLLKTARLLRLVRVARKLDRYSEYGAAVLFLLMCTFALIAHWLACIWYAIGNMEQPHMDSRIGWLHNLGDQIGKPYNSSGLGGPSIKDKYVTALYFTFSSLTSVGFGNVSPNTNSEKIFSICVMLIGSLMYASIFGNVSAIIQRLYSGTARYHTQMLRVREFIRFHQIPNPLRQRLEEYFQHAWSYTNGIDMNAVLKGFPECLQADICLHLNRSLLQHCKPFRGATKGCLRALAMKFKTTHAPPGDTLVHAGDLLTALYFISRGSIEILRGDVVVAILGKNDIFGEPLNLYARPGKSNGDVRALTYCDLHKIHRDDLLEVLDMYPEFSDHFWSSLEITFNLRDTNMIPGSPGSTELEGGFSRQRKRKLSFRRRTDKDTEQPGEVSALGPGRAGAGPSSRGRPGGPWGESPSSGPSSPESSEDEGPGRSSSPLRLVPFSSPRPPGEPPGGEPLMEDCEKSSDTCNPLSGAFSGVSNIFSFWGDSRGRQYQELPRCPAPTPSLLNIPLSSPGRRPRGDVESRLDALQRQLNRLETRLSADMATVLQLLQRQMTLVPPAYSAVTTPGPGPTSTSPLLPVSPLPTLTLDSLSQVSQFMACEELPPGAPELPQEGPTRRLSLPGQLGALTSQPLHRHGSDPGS

For the compound `C[C@]1(c2cc(NC(=O)c3ccc(C#N)cn3)ccc2F)N=C(N)O[C@@H]2CC(F)(F)C[C@@H]21` [Example 2, 5-Cyano-pyridine-2-carboxylic acid [3-((4S,4aR,7aR)-2-amino-6,6-difluoro-4-methyl 4,4a,5,6,7,7a-hexahydro-cyclopenta[e][1,3]oxazin-4-yl)-4-fluoro-phenyl]-amide], the IC50 was more than 10 µM on CYP2D6; 120 µM in [1]; 101 µM in data set [2]; more than 10 µM at CYP2C9; more than 10 µM at CYP3A4. On hERG channel, the hERG inhibition entry was “A (less than 20% inhibition @ 1 μM)”. Also, in the data set “in vivo effect”, the in vivo effect entry is listed as “A (less than 50% of control @ 30 mg/kg p.o.)”. In addition, in [3], the “GSH human (glutathione adduct formation)” value was “NF”.
Turning to `C[C@]1(c2cc(NC(=O)c3ccc(Cl)cn3)ccc2F)N=C(N)O[C@@H]2CC(F)(F)C[C@@H]21` [Example 1, 5-Chloro-pyridine-2-carboxylic acid [3-((4S,4aR,7aR)-2-amino-6,6-difluoro-4-methyl-4,4a,5,6,7,7a-hexahydro-cyclopenta[e][1,3]oxazin-4-yl)-4-fluoro-phenyl]-amide], the IC50 at CYP2D6 was 1 to 10 µM; in data set [1], 52 µM; in data set [2], 133 µM; on CYP2C9, more than 10 µM; at CYP3A4, more than 10 µM; on BACE1, 0.0004 µM. In addition, the in vivo effect entry in the data set “in vivo effect” was “A (less than 50% of control @ 30 mg/kg p.o.)”. Further, the “GSH human (glutathione adduct formation)” value in [3] is on record as “NF”.

For the origin of these results see US8476264B2, “N-(3-(2-amino-6,6-difluoro-4,4A,5,6,7,7A-hexahydro-cyclopenta[E][1,3]oxazin-4-yl)-phenylamides as BACE1 inhibitors” (Hoffmann-La Roche Inc., priority 2011, dated 2013).
